In test [1] the target is Dihydrofolate reductase (Neisseria gonorrhoeae, UniProt P04174). Briefly: Inhibitory activity against dihydrofolate reductase (DHFR) of Neisseria gonorrhoea. To be noted: read-out: I50.
Test [2] concerns the target Bifunctional dihydrofolate reductase-thymidylate synthase (Plasmodium berghei str. ANKA, UniProt Q27713). The test is described as follows: Inhibitory activity against dihydrofolate reductase (DHFR) of Plasmodium berghei. The settings on record: read-out: I50.
In test [3] the target is T1, Dihydrofolate reductase (Rattus norvegicus, UniProt Q920D2).
T1 sequence (Q920D2 whole entry): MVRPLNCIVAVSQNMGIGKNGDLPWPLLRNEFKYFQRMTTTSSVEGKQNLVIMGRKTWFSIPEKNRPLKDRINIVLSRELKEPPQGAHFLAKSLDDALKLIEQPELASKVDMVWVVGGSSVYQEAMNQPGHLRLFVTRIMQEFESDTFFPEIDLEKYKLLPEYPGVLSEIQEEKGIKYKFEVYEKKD
The test is described as follows: Inhibitory activity against dihydrofolate reductase (DHFR) from rat liver. The settings on record: read-out: I50.

Test [4] concerns the target T2, Dihydrofolate reductase (Rattus norvegicus) (UniProt Q920D2).
T2 sequence (whole entry): T1 sequence (Q920D2 whole entry)
Briefly: Inhibitory activity against dihydrofolate reductase (DHFR) of Rat liver at a concentration 2 x 10 E -5 M.

The target in test [5] is T2, Dihydrofolate reductase (Rattus norvegicus). Briefly: Inhibitory activity against dihydrofolate reductase (DHFR) of Rat liver at a concentration 10 E -6 M.

Bifunctional dihydrofolate reductase-thymidylate synthase, sequence (Q27713 whole entry): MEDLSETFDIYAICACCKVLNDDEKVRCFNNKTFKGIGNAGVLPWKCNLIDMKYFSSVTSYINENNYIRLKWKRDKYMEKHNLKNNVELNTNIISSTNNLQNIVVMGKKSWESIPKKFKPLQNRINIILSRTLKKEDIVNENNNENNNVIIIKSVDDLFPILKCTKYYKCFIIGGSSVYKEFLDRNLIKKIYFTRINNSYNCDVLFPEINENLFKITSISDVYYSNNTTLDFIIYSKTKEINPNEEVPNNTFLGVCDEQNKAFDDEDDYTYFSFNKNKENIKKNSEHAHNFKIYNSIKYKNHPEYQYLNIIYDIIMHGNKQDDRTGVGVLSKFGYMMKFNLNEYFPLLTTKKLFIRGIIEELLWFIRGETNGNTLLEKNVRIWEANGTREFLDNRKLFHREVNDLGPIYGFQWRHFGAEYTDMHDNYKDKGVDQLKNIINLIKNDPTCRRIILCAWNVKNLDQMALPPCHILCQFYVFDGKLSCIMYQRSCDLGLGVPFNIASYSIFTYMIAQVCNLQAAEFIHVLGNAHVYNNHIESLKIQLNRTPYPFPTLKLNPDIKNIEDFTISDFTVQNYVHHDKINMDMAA
Dihydrofolate reductase (Neisseria gonorrhoeae, UniProt P04174), sequence (P04174 whole entry): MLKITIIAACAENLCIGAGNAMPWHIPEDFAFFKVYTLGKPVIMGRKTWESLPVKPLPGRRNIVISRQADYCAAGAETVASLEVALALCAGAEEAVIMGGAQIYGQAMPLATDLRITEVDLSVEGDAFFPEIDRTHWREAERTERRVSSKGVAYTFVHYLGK

Take `Cc1cc(Cc2cnc(N)nc2N)cc(C(C)C)c1N`: the IC50 at Dihydrofolate reductase [1] amounted to 0.26 µM.
With `CCCc1cc(Cc2cnc(N)nc2N)cc(CCC)c1O`, the IC50 on Dihydrofolate reductase [1] amounted to 0.02 µM; in test [2] it was 0.0057 µM; on Dihydrofolate reductase [3], 2 µM.
`CCCCCCCCCCCCOc1c(CC)cc(Cc2cnc(N)nc2N)cc1CC`: the values for the IC50 (on Dihydrofolate reductase [1]; in test [2]; on Dihydrofolate reductase [3]) were 3.5 µM, 0.35 µM and 64 µM, respectively.
Regarding `Nc1ncc(Cc2cc(Br)c(N)c(Br)c2)c(N)n1`, the IC50 was 0.093 µM at Dihydrofolate reductase [1] and 57 µM at Dihydrofolate reductase [3].
As for `COc1c(C)cc(Cc2cnc(N)nc2N)cc1C(C)(C)C`, the IC50 on Dihydrofolate reductase [1] worked out at 0.24 µM; in test [2], 0.077 µM; on Dihydrofolate reductase [3], 130 µM.
In the case of `CCOc1c(CC)cc(Cc2cnc(N)nc2N)cc1CC`, the IC50 is 0.356 µM at Dihydrofolate reductase [1], 0.035 µM in test [2] and 52 µM at Dihydrofolate reductase [3].
As to `CC(C)c1cc(Cc2cnc(N)nc2N)cc(C(C)C)c1O`, the IC50 is 0.029 µM on Dihydrofolate reductase [1], 0.11 µM in test [2] and 8.9 µM at Dihydrofolate reductase [3].
In the same order, the values of `CCc1cc(Cc2cnc(N)nc2N)cc(CC)c1OC` are 0.155 µM, 0.0121 µM and 58 µM.
On the same counts, the results for `CC(C)(C)c1cc(Cc2cnc(N)nc2N)cc(C(C)(C)C)c1O` are 0.061 µM, 0.14 µM and 34.5 µM.
In the same order, the values of `CCCCOc1c(CCC)cc(Cc2cnc(N)nc2N)cc1CCC` are 0.132 µM, 0.0058 µM and 15 µM.
`CCCc1cc(Cc2cnc(N)nc2N)cc(CC)c1O`: the IC50 at Dihydrofolate reductase [1] turned out to be 0.049 µM; in test [2] it was 0.015 µM; on Dihydrofolate reductase [3], 4.45 µM.
On to `COc1cc(Cc2cnc(N)nc2N)cc(OC)c1O` [4-HYDROXYTRIMETHOPRIM], for which the IC50 on Dihydrofolate reductase [1] amounted to 0.33 µM.
For the compound `Cc1cc(Cc2cnc(N)nc2N)cc(Cl)c1N`, the IC50 on Dihydrofolate reductase [3] is 160 µM.
For the compound `COc1cc(Cc2cnc(N)nc2N)cc(OC)c1N`, the IC50 amounted to 0.81 µM at Dihydrofolate reductase [1] and 520 µM at Dihydrofolate reductase [3].
As for `Nc1ncc(Cc2cc(I)c(OCCCOc3ccccc3)c(I)c2)c(N)n1`, the figures for the IC50 on Dihydrofolate reductase [1] and at Dihydrofolate reductase [3] were 0.043 µM and 1.58 µM, respectively.
On to `COc1c(C(C)(C)C)cc(Cc2cnc(N)nc2N)cc1C(C)(C)C`, for which the figures for the IC50 (at Dihydrofolate reductase [1]; in test [2]; on Dihydrofolate reductase [3]) were 0.058 µM, 0.013 µM and 31 µM, respectively.
For `COc1ccc(Cc2cnc(N)nc2N)cc1OC` [DIAVERIDINE], the IC50 on Dihydrofolate reductase [1] stood at 0.53 µM; at Dihydrofolate reductase [3], 86 µM.
Consider `Nc1ncc(Cc2cc(I)c(O)c(I)c2)c(N)n1`, for which the IC50 worked out at 0.028 µM on Dihydrofolate reductase [1], 0.053 µM in test [2] and 9.9 µM on Dihydrofolate reductase [3].
For `Cc1cc(Cc2cnc(N)nc2N)cc(C(C)(C)C)c1N`, the IC50 at Dihydrofolate reductase [1] stood at 0.39 µM; on Dihydrofolate reductase [3] it was 370 µM.
On the same counts, the results for `CCc1cc(Cc2cnc(N)nc2N)cc(CC)c1OCCO` are 0.045 µM and 120 µM.
As for `COc1c(C(C)C)cc(Cc2cnc(N)nc2N)cc1C(C)C`, the IC50 came out at 0.063 µM at Dihydrofolate reductase [1], 0.023 µM in test [2] and 13 µM at Dihydrofolate reductase [3].
Consider `Cc1cc(Cc2cnc(N)nc2N)cc(C(C)(C)C)c1O`, for which the figures for the IC50 on Dihydrofolate reductase [1] and at Dihydrofolate reductase [3] were 0.259 µM and 120 µM, respectively.
Consider `Nc1ncc(Cc2cc(Cl)c(N)c(Cl)c2)c(N)n1`, for which the IC50 is 0.318 µM at Dihydrofolate reductase [1] and 130 µM on Dihydrofolate reductase [3].
Regarding `CCc1cc(Cc2cnc(N)nc2N)cc(CC)c1O`, the figures for the IC50 (at Dihydrofolate reductase [1]; in test [2]; at Dihydrofolate reductase [3]) were 0.12 µM, 0.028 µM and 16 µM, respectively.
For the compound `CCc1cc(Cc2cnc(N)nc2N)cc(C)c1N`, the IC50 came to 0.56 µM at Dihydrofolate reductase [1] and 144 µM at Dihydrofolate reductase [3].
On the same counts, the results for `CC(C)c1cc(Cc2cnc(N)nc2N)cc(C(C)C)c1N` are 0.137 µM and 34 µM.
As for `CCCc1cc(Cc2cnc(N)nc2N)cc(CC)c1OC`, the IC50 at Dihydrofolate reductase [1] turned out to be 0.044 µM; in test [2], 0.01 µM; on Dihydrofolate reductase [3], 32 µM.
On the same counts, the results for `CCc1cc(Cc2cnc(N)nc2N)cc(CC)c1OCCCOc1ccccc1` are 0.064 µM, 0.01 µM and 8.75 µM.
`Cc1cc(Cc2cnc(N)nc2N)cc(C)c1O`: the IC50 on Dihydrofolate reductase [1] was 0.526 µM; on Dihydrofolate reductase [3], 71 µM.
In the case of `COc1cc(Cc2cnc(N)nc2N)ccc1N`, the IC50 at Dihydrofolate reductase [3] is 470 µM.
For `Cc1cc(Cc2cnc(N)nc2N)cc(C)c1N`, the IC50 at Dihydrofolate reductase [1] amounted to 0.485 µM; on Dihydrofolate reductase [3] it was 380 µM.
As to `CCc1cc(Cc2cnc(N)nc2N)cc(C)c1O`, the IC50 at Dihydrofolate reductase [1] amounted to 0.35 µM; at Dihydrofolate reductase [3], 39 µM.
Regarding `COc1c(I)cc(Cc2cnc(N)nc2N)cc1I`, the IC50 on Dihydrofolate reductase [1] was found to be 0.028 µM; in test [2] it was 0.031 µM; at Dihydrofolate reductase [3] it was 16 µM.
In the same order, the values of `CCc1cc(Cc2cnc(N)nc2N)cc(C)c1OC` are 0.31 µM, 0.12 µM and 83 µM.
On to `CCc1cc(Cc2cnc(N)nc2N)cc(C(C)CC)c1N` (centres undefined), for which the IC50 on Dihydrofolate reductase [1] amounted to 0.075 µM; on Dihydrofolate reductase [3], 27 µM.
As to `CCCc1cc(Cc2cnc(N)nc2N)cc(CCC)c1OC`, the results for the IC50 (on Dihydrofolate reductase [1]; in test [2]; at Dihydrofolate reductase [3]) were 0.06 µM, 0.02 µM and 21 µM, respectively.
The Inhibition is the relative decrease from the control value, in per cent. Regarding `CCCCC(CC)COc1c(CC)cc(Cc2cnc(N)nc2N)cc1CC` (centres undefined), the IC50 is 0.319 µM on Dihydrofolate reductase [1] and 0.042 µM in test [2]. The Inhibition in test [4] was found to be 0%.
For `COc1cc(Cc2cnc(N)nc2N)ccc1O`, at Dihydrofolate reductase [3], the IC50 came to 35 µM.
As for `COc1c(C)cc(Cc2cnc(N)nc2N)cc1C`, the results for the IC50 (at Dihydrofolate reductase [1]; in test [2]; on Dihydrofolate reductase [3]) were 0.5 µM, 0.12 µM and 250 µM, respectively.
In the same order, the values of `CCOc1cc(Cc2cnc(N)nc2N)cc(OCC)c1OCC` are 0.22 µM, 0.0075 µM and 30 µM.
Regarding `CCOc1c(C)c(C)c(Cc2cnc(N)nc2N)c(C)c1C`, in test [5], the Inhibition worked out at 0%.
`CCc1cc(Cc2cnc(N)nc2N)cc(CC)c1N`: the IC50 was determined as 0.107 µM on Dihydrofolate reductase [1] and 38 µM at Dihydrofolate reductase [3].

These data come from ChEMBL document CHEMBL1123675, “2,4-Diamino-5-benzylpyrimidines as antibacterial agents. 7. Analysis of the effect of 3,5-dialkyl substituent size and shape on binding to four different dihydrofolate reductase enzymes” (J Med Chem, 1987).
